Results on one compound are retold here after patent US12121540B2, “CBL inhibitors and compositions for use in adoptive cell therapy” (Nurix Therapeutics, Inc., priority 2019, dated 2024).

In this experiment the test system is E.G7-OVA tumors. Kind of experiment: Oral Cbl inhibitor treatment with expanded OT-1 cells in tumor-bearing mice. Type of experiment: in vivo, mouse. As for the experimental part:
Tumor volume was measured roughly every five days after cell transfer.
OT-1 cells were assessed in mouse blood 5 days and 20 days after transfer.

Molecules are shown by their SMILES.

On to `C[C@H]1CCCN(Cc2cc3c(c(C(F)(F)F)c2)CN(c2cccc([C@]4(c5nncn5C)C[C@@H](C)C4)c2)C3=O)C1` [compound 116], for which, for the setting “oral administration, OT-1 cells expanded with compound 103 plus IL-2, FIG. 18”, the “Anti-tumor efficacy (tumor volume) of OT-1 cells” value is on record as “enhanced the anti-tumor efficacy”. Also, the Survival of mice result (oral administration, OT-1 cells expanded with compound 103 plus IL-2, FIG. 19) was “enhanced survival”. In addition, the “Persistence of OT-1 cells in mouse blood” value (oral, OT-1 cells expanded with Cbl inhibitor plus IL-2) was “longer persistence”. In addition, for the setting “oral, OT-1 cells expanded with Cbl inhibitor plus IL-2, 5 and 20 days after transfer”, the “Frequency of OT-1 cells in mouse blood” value is on record as “increased frequency”.
